From patent US9427433B2, “Methods and compositions for enhancing fertility and/or inhibiting pregnancy failure and restoring glucose tolerance” (Queen's University at Kingston, priority 2011, dated 2016)

How the values were obtained:
Assay type in all cases: in vivo, mouse
[1] = Likely blood concentration from the dose regimen described herein (extrapolated); conditions: four-fold lower than the rat value
Description: The smallest currently available tacrolimus dose is a 0.5 mg capsule and a single oral dose of 0.5 mg tacrolimus results in a maximal blood concentration in humans of 4.6 ng/ml (Mathew et al. Clinical Therapeutics. 2011 33(9):1105-1119). This represents over a seven-fold difference based upon the efficacious blood concentration of tacrolimus in experiments disclosed herein. A dose of 0.1 mg/kg in rats represents does of 0.2 mg/kg in mice, based upon a rat Km=6. This is a four-fold higher dose (0.2 mg/kg) than used in experiments disclosed herein. Therefore, the likely blood concentration from the dose regimen described herein would be four-fold lower (i.e. 0.15 ng/ml blood concentration) and represents an even greater exposure difference (28-fold to 38-fold) compared to existing tacrolimus dose forms for humans. Thus, experiments disclosed herein indicate that a substantially lower dose of macrolide agent such as tacrolimus than routinely administered to date may be useful in the methods of the present invention. By “substantially lower dose” or “low dose therapy” for purposes of the present invention, it is meant a dose of macrolide agent at least 2-fold lower, more preferably at least 4-fold lower, more preferably at least 10-fold lower, than the recommended starting doses of tacrolimus (Prograf) when administered for kidney and liver transplant or heart transplant.

[2] = tested on: NZO mice fed a high fat diet; test: Implantation rate and resorption, comparison of macrolides
Description: For the comparative evaluation of other macrolide drugs to tacrolimus, mice starting at 7 weeks of age were maintained on the high fat diet for a total of 13 weeks of study period. Mice were entered into the experiments when determined to be glucose intolerant as described above. Methods of drug administration and other experimental methods were as described above.
Peri-implantation (E4.5) and post-implantation (E6.5) pregnant and/or pseudopregnant (E4.5bid and E6.5bid) mouse uteri were prepared after mating respectively with fertile and/or vasectomized males as previously described (Herington et al. Endocrinol 2009 150: 4404-4413). The morning of vaginal plug detection was considered as gestational day 0.5 (E0.5 or Gd.0.5). An average number of twenty Concanavalin A(ConA)-coated sepharose beads (average size of 0.1 mm-diameter) (Sigma-Aldrich, Burlington, Ontario, Canada) was injected into the lumen of the left uterine horn of anesthetized animals between hours 13:00 and 16:00 on day 2.5 of pseudopregnancy according to the procedure described by Herington et al. (Endocrinol, 2009 150: 4404-4413). With the use of Ketamine/Xyalzine anesthesia and cardiac puncture, all animals were sacrificed at the age of 16-18 weeks between the morning hours 09:00-11:00. Pregnant and pseudopregnant mice were sacrificed in the morning of days 4.5 and 6.5 of their respective pregnancy. Blood samples were collected from all animals and were let stand for 1 hour at room temperature before isolation of the serum. Serum samples were stored at −80° C. until they were analyzed for their steroid hormones and lipid contents by appropriate laboratory procedures such as radio-immunoassay (RIA) all of which were conducted at the Department of Clinical Chemistry (Kingston General Hospital, Kingston, Ontario, Canada). Ovaries, oviducts and uteri were carefully dissected out of carcasses and were placed in ice-cold phosphate buffered saline (PBS)-containing petri dishes. Under a dissecting microscope, uteri were carefully isolated from their attached uterine tubes, trimmed of all mesenteric fat and were immediately weighed. The numbers of corpora lutea and implantation sites (viable and resorbed) were counted, respectively, from E4.5 and E6.5 pregnant mouse ovaries and uteri. For protein and RNA extraction, virgin uteri and segments of uterine horns containing inter-implantation sites of pregnant and pseudopregnant uteri were transected and snapped frozen in liquid nitrogen.
Examination of external morphological features of uteri of pregnant mice, including counts of implantation sites and photography was performed using a computerized dissecting microscope (Leica Diagnostic Instruments, USA) and the image acquisition and analytic software (SPOT 2.2.0). Percentage of peri-implantation embryo loss was calculated as described by Bindali and Kaliwal (Ind. Health, 2002 40:191-197), using the formula: % Preimplantation loss=[Total number of corpora lutea−Total number of implantation]/Total number of corpora lutea. Immunohistochemical localization and assessment of microscopic morphological features of implantation and inter-implantation sites in normoglycemic and diabetic NOD mice were performed on methacarn (60% methanol, 30% chloroform and 10% acetic acid)-fixed specimens. […]

NOD, NZO and DIO mice = test: Still births, malformations and live births of near-term pups
Description: FIGS. 13A through 13G show results of short term administration of tacrolimus reducing the rates of stillbirths and malformations associated with the diabetic gestation and restoration of normal term pregnancy with high rate of live births in the treated diabetic and obese mice. Numbers and external morphological features of near term (Gd.16.5) pups delivered to tacrolimus-treated versus those delivered to vehicle-treated diabetic and their normoglycemic control mice are depicted in FIGS. 13A through 13C, respectively. Fetal viability rates and external features of pups delivered to diabetic and obese mice with those of the tacrolimus-treated obese and type 2 diabetic mice are depicted in FIGS. 13D and 13E, respectively. Graph bars of FIGS. 13F and 13G display figure statistics.
The successful use of tacrolimus in reducing still birth rates and preventing fetal malformations in the diabetic and obese mice is supportive of the etiological role for IFN-γ in the pathophysiology of fetal loss in diabetes and obese subjects. FIG. 13 provides a comparison between the external morphological features and liver versus still birth rates in near-term (Gd.16.5) pups delivered to tacrolimus-treated NOD (FIG. 13A) versus vehicle-treated diabetic NOD (FIG. 13B) and their normoglycemic control mice (FIG. 13C). […]

SMILES: C=CC[C@@H]1/C=C(\C)C[C@H](C)C[C@H](OC)[C@H]2O[C@@](O)(C(=O)C(=O)N3CCCC[C@H]3C(=O)O[C@H](/C(C)=C/[C@@H]3CC[C@@H](O)[C@H](OC)C3)[C@H](C)[C@@H](O)CC1=O)[C@H](C)C[C@@H]2OC [tacrolimus]
- likely blood concentration [1]: 0.15 ng/mL
- fertility-enhancing effect compared with the other macrolides ([2]; NZO mice, high fat diet): greater comparative effects
- embryonic and fetal absorption rate ([2]; same treatments, vs vehicle, p<0.05): significantly reduced embryonic and fetal absorption rate
- implantation rate ([2]; tacrolimus 0.05 and 0.1 mg/kg, pimecrolimus 0.1 mg/kg, sirolimus 0.1 mg/kg s.c. every other day for three weeks, vs vehicle): significantly improved implantation rate (p<0.05)
- rates of still births and malformations (NOD, NZO and DIO mice; near-term (Gd.16.5) pups): reduced the rates of still births and malformations
- term pregnancy and live births (NOD, NZO and DIO mice; treated diabetic and obese mice): restored normal term pregnancy with high rate of live births
